Our source for the solubility and solubility in water values is patent US12311025B2, “Formulations for eye treatments” (Avedro, Inc., priority 2017, dated 2025).

A short description of data set [1]: Solubility of FMN in co-solvents. The following applies: organic solvent or mixture. Type of data set: physicochemical. The source says: Other penetration-enhancing agents may include a non-ionic co-solvent as a tonicity agent in a formulation. Tonicity agents that are sufficiently low in MW can readily diffuse into the tissues. The therapeutic agent having good solubility in the co-solvent can experience enhanced delivery through the epithelium and into the stroma. Propylene glycol may be a penetration enhancer for topical formulations by this mechanism of action. Thus, the one or more therapeutic formulations 304 may include one or more co-solvents as tonicity agents 304c. A list of co-solvents that may be used to increase therapeutic agent delivery via this mechanism of action and suitable for ophthalmic use are shown in TABLE 2.
Both propylene glycol and glycerin may be employed as ingredients in dry eye drops. Glycerin has been evaluated for therapeutic agent delivery into the eye and is capable of penetrating the cornea. For instance, FMN has solubility in propylene glycol and glycerin that is greater than the total concentration in the formulation. As the co-solvent penetrates the tissues, it may carry some FMN into the tissues as well enhancing the delivery. Replacing the sodium chloride with glycerin or propylene glycol should not negatively impact therapeutic agent delivery of the FMN.

For data set [2] the following is noted: cited from earlier work.

By solubility is commonly meant how much of the substance goes into solution per volume.

Values after ≈ are worked out from the molar mass of the structure shown.

For the compound `Cc1cc2nc3c(=O)[nH]c(=O)nc-3n(C[C@H](O)[C@H](O)[C@H](O)COP(=O)(O)O)c2cc1C` [FMN, riboflavin-5′-phosphate], the solubility was found to be 80 µg/mL (≈ 0.175 mM) in data set [1] (in ethanol), 8900 µg/mL (≈ 19.5 mM) in data set [1] (in glycerin) and 5700 µg/mL (≈ 12.5 mM) in data set [1] (in propylene glycol).
As for `CC1CCC(C(C)C)C(O)C1` (stereo not shown) [menthol], the solubility in water in data set [2] was 0.04%.
